Assays:
[1] = tested on: ALDH (acetaldehyde dehydrogenase) gene; assay: qPCR of ALDH mRNA in HepG2 cells; format: cell-based, human; settings: HepG2, 10 μM, 1 and 2 h
Method: To evaluate the role of the GFM in ethanol metabolism, the genes of primary enzymes (ADH, ALDH, CYP2E1, and catalase) involved in eliminating ethanol from the body were quantified by real-time qPCR. Particularly, total RNA extracts from HepG2 cells (1×10^6 cells/well) treated with ethanol (0.2 mM) or GFM (10 μg/ml) were prepared using the Trizol method (Invitrogen) after 1, 2, 4 and 24 h after the treatment. And then, cDNA was synthesized from RNA by reverse transcription of 1 μg of total RNA using the Improm-II reverse transcription system (Promega) and oligo dT primers in a total volume of 20 μL. PCR amplification was performed using the primers described in Table 1 (Bioneer, Deajeon, Republic of Korea). Quantitative real-time PCR reactions were run on a Rotor-Gene 6000 (Corbett Research, Sydney, Australia) using SYBR Green PCR Master Mix (Qiagen, Valencia, Calif., USA) in 20 μL reaction mixtures. Each real-time-PCR master mix contained 10 μL 2× enzyme mastermix, 7.0 μL RNase free water, 1 μL of each primer (10 μM each) and 1 μL diluted template. […] Relative sample expression levels were calculated using Rotor-Gene 6000 Series Software 1.7 and were expressed relative to glyceraldehyde 3-phosphate dehydrogenase and corrected for between-run variability. Data for the experimental samples were expressed as a percentage of the internal control gene. […]

[2] = Side effects: body weights, organ masses, symptoms after administration; settings: ethanol only (300 μl of 20% ethanol oral), 8 h
Method: (§1) GFM suspended in saline solution was orally administrated (25 mg/kg) and CTD dried and then resolved in saline solution (50 mg/kg) was used as positive control (50 mg/kg). Before the administration, the experimental animals fasted 4 hours, and after the administration additional 1 hour of fasting was performed.

[3] = male, BALB/c, mouse, in vivo, 1 h
Method: Male BALB/c mice (7-week old) were purchased from Samtaco (Osan, Kyunggi-do, Republic of Korea), and were adapted to laboratory conditions (temperature: 20±2° C., relative humidity: 50%, light/dark cycle: 12 h) for 1 week. […] Perfused liver tissues from the treated mice were prepared using the Trizol method (Invitrogen, USA).
The enzymatic analysis was conducted with ALDH according to the method of Lundquist (Lundquist F. et al., Biochem. J., 68:172-177, 1958; Lundquist F. et al., In: Bergmeier H U (ed) Methods of enzymatic analysis. 2nd ed. Weinheim/New York and London, 230-257, 1974). This enzymatic test for alcohol utilizes the coenzyme NAD and ADH. The amount of NADH formed is stoichiometric to the amount of acetaldehyde. NADH was determined by light absorbance at 365 nm.

[4] = Hepatoprotective effect: serum GOT and GPT after oral ethanol; settings: 20% ethanol only, 300 μl oral, 8 h after ethanol
Method: as §1

HepG2 cells = assay: Cytotoxicity assay by LDH release; format: cell-based, human; settings: HepG2, ethanol 200 mM
Method: HepG2 human hepatoma cells (Korean Cell Line Bank, Seoul, Republic of Korea) were grown in RPMI1640 complete medium (Hyclone, Logan, Utah, USA) supplemented with 10% fetal bovine serum, 100 U/mL penicillin, and 100 μg/mL streptomycin (Invitrogen, Carlsbad, Calif., USA). The cultures were maintained under 5% CO2 at 37° C. in tissue culture flasks. For all experiments, cells were grown to >90% confluency and subjected to no more than 20 cell passages. The medium was changed every 2-3 days. Subconfluent cells were harvested and seeded at a density of 5×10^5 cells or 1.5×10^6 cells in poly-L-lysine-coated 35 mm or 60 mm culture plates. […]
Cytotoxicity of the GFM was investigated by measuring lactate dehydrogenase (LDH) release from HepG2 cells. That is, the cytotoxicity induced by the GFM in HepG2 cells was quantified by measuring LDH release at varying ranges of concentration (1-1,000 μg/mL). Cytotoxicity in experimental samples was determined as % LDH release, and the data from triplicate cultures were expressed as the mean±standard deviation. Concentration-dependent cytotoxicity determined as % LDH release was compared with non-treated control cells (Ctrl) and H2O2 (1 mM)-treated control was used as a positive control. […] Formazan was quantified spectrophotometrically by measuring its absorbance at 490 nm (Spectra Max 340, Molecular Devices, Sunnyvale, Calif., USA).

Row | Structure (SMILES) | ALDH mRNA expression induced by fatty acid [1] | Body weight [2] [g] | Liver mass [2] [g] | Spleen mass [2] [g] | serum ethanol detected by GC [3] [%] | serum GOT [4] [IU/L] | serum GPT [4] [IU/L] | cytotoxicity (% LDH release) (HepG2 cells)
1 | CCCCC/C=C\C/C=C\CCCCCCCC(=O)O [LA, linoleic acid] | effectiveness of GFM might be mainly from LA | – | – | – | – | – | – | –
2 | CCO [ethanol] | – | 21.00 ± 0.57 | 1.31 ± 0.11 | 0.09 ± 0.01 | 12.2 | 259.00 ± 17.44 | 150.50 ± 10.13 | not cytotoxic

Source: patent publication US9901608B2, “Composition and method for enhancing alcohol metabolism” (GANGNEUNG-WONJU NATIONAL UNIVERSITY INDUSTRY ACADEMY …, priority 2014, dated 2018)
